# Measured values reported in US10239883B2, “4-imidazopyridazin-1-yl-benzamides as BTK inhibitors” (Merck Sharp & Dohme B.V., priority 2011, dated 2019).
# Biological target: Btk enzyme (His-Btk) (Homo sapiens (Human), UniProt Q06187)
# Assay: Btk enzyme activity, IMAP fluorescence polarization assay
# Details: 60 min pre-incubation, 5 μM ATP, bin bound in nM
# Sequence of Btk enzyme (His-Btk) (Q06187 whole entry): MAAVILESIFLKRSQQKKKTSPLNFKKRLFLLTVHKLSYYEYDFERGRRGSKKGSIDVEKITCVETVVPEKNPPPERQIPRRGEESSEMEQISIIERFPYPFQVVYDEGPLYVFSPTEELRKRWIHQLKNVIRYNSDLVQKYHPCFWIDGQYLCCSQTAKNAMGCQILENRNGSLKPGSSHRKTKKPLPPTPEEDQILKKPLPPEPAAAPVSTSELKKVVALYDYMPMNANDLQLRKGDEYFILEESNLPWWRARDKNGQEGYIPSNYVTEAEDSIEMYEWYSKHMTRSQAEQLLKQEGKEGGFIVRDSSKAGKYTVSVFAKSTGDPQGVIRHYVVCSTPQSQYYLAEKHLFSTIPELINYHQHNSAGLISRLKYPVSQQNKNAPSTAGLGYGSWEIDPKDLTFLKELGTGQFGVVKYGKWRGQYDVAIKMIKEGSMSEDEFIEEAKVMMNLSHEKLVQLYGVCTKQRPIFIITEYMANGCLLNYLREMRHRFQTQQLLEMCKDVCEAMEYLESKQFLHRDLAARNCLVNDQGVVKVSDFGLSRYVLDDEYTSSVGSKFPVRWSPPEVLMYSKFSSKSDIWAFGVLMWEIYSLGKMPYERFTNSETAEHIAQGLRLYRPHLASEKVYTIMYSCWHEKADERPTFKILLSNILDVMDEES
row,Compound,EC50 Btk activity values
1,"COC/C=C/C(=O)N1CCC[C@H]1c1nc(-c2ccc(C(=O)Nc3ccccn3)cc2)c2c(N)nccn12 [Example 4, (S,E)-4-(8-amino-3-(1-(4-methoxybut-2-enoyl)pyrrolidin-2-yl)imidazo[1,5-a]pyrazin-1-yl)-N-(pyridin-2-yl)benzamide]",<100 nM
2,"Cc1ccnc(NC(=O)c2ccc(-c3nc([C@@H]4CCCN4C(=O)/C=C/CN(C)C)n4ccnc(N)c34)cc2)c1 [Example 59, (S,E)-4-(8-amino-3-(1-(4-(dimethylamino)but-2-enoyl)pyrrolidin-2-yl)imidazo[1,5-a]pyrazin-1-yl)-N-(4-methylpyridin-2-yl)benzamide]",<100 nM
3,"Nc1nccn2c([C@@H]3CCCN3C(=O)/C=C/CN3CCCC3)nc(-c3ccc(C(=O)Nc4ccccn4)cc3)c12 [Example 2, (S,E)-4-(8-amino-3-(1-(4-(pyrrolidin-1-yl)but-2-enoyl)pyrrolidin-2-yl)imidazo[1,5-a]pyrazin-1-yl)-N-(pyridin-2-yl)benzamide]",<100 nM
4,"Nc1nccn2c([C@@H]3CCCCN3C(=O)c3ccnc(Cl)n3)nc(-c3ccc(C(=O)Nc4cc(F)ccn4)cc3)c12 [Example 80, (S)-4-(8-amino-3-(1-(2-chloropyrimidine-4-carbonyl)piperidin-2-yl)imidazo[1,5-a]pyrazin-1-yl)-N-(4-fluoropyridin-2-yl)benzamide]",<100 nM
5,"CN(C)C/C=C/C(=O)N1CCCC[C@H]1c1nc(-c2ccc(C(=O)Nc3cccnn3)cc2)c2c(N)nccn12 [Example 73, (S,E)-4-(8-amino-3-(1-(4-(dimethylamino)but-2-enoyl)piperidin-2-yl)imidazo[1,5-a]pyrazin-1-yl)-N-(pyridazin-3-yl)benzamide]",<100 nM
6,"CN(C)C/C=C/C(=O)NCc1nc(-c2ccc(C(=O)Nc3ccccn3)cc2)c2c(N)nccn12 [Example 69, (E)-4-(8-amino-3-((4-(dimethylamino)but-2-enamido)methyl)imidazo[1,5-a]pyrazin-1-yl)-N-(pyridin-2-yl)benzamide]",<100 nM
7,"CC#CC(=O)N1CCCC[C@H]1c1nc(-c2ccc(C(=O)Nc3ccon3)cc2)c2c(N)nccn12 [Example 24, (S)-4-(8-Amino-3-(1-but-2-ynoylpiperidin-2-yl)imidazo[1,5-a]pyrazin-1-yl)-N-(isoxazol-3-yl)benzamide]",<100 nM
8,"CCc1ccnc(NC(=O)c2ccc(-c3nc([C@@H]4CCCN4C(=O)/C=C/COC)n4ccnc(N)c34)cc2)c1 [Example 11, (S,E)-4-(8-Amino-3-(1-(4-methoxybut-2-enoyl)pyrrolidin-2-yl)imidazo[1,5-a]pyrazin-1-yl)-N-(4-ethylpyridin-2-yl)benzamide]",<100 nM
9,"CC#CC(=O)N1CCCC[C@H]1c1nc(-c2ccc(C(=O)Nc3nccc(C)n3)cc2)c2c(N)nccn12 [Example 89, (S)-4-(8-amino-3-(1-but-2-ynoylpiperidin-2-yl)imidazo[1,5-a]pyrazin-1-yl)-N-(4-methylpyrimidin-2-yl)benzamide]",<100 nM
10,"CN(C)CC#CC(=O)N1CCC[C@H]1c1nc(-c2ccc(C(=O)Nc3ccccn3)cc2)c2c(N)nccn12 [Example 40, (S)-4-(8-Amino-3-(1-(4-(dimethylamino)but-2-ynoyl)pyrrolidin-2-yl)imidazo[1,5-a]pyrazin-1-yl)-N-(pyridin-2-yl)benzamide]",<100 nM
11,"COC/C=C/C(=O)N1CCC[C@H]1c1nc(-c2ccc(C(=O)Nc3cc(C)ccn3)cc2)c2c(N)nccn12 [Example 57, (S,E)-4-(8-amino-3-(1-(4-methoxybut-2-enoyl)pyrrolidin-2-yl)imidazo[1,5-a]pyrazin-1-yl)-N-(4-methylpyridin-2-yl)benzamide]",<100 nM
12,"Nc1nccn2c([C@@H]3CCCN3C(=O)c3ccnc(Cl)n3)nc(-c3ccc(C(=O)Nc4ccccn4)c(F)c3)c12 [Example 84, (S)-4-(8-amino-3-(1-(2-chloropyrimidine-4-carbonyl)pyrrolidin-2-yl)imidazo[1,5-a]pyrazin-1-yl)-2-fluoro-N-(pyridin-2-yl)benzamide]",<100 nM
13,"COC/C=C/C(=O)N1CCC[C@H]1c1nc(-c2ccc(C(=O)Nc3nc4c(s3)CCCC4)cc2)c2c(N)nccn12 [Example 82, (S,E)-4-(8-amino-3-(1-(4-methoxybut-2-enoyl)pyrrolidin-2-yl)imidazo[1,5-a]pyrazin-1-yl)-N-(4,5,6,7-tetrahydrobenzo[d]thiazol-2-yl)benzamide]",<100 nM
14,"COC/C=C/C(=O)N1CCC[C@H]1c1nc(-c2ccc(C(=O)Nc3cc(OC)ccn3)cc2)c2c(N)nccn12 [Example 51, (S,E)-4-(8-amino-3-(1-(4-methoxybut-2-enoyl)pyrrolidin-2-yl)imidazo[1,5-a]pyrazin-1-yl)-N-(4-methoxypyridin-2-yl)benzamide]",<100 nM

# Other lines, results leading:
row,EC50 Btk activity values,Compound
1,<100 nM,"COC/C=C/C(=O)N1CCCCCC1c1nc(-c2ccc(C(=O)Nc3ccccn3)cc2)c2c(N)nccn12 (stereo not shown) [Example 97, (E)-4-(8-amino-3-(1-(4-methoxybut-2-enoyl)azepan-2-yl)imidazo[1,5-a]pyrazin-1-yl)-N-(pyridin-2-yl)benzamide]"
2,<100 nM,"CC#CC(=O)N1CCC[C@H]1c1nc(-c2ccc(C(=O)Nc3cc(F)ccn3)cc2)c2c(N)nccn12 [Example 106, (S)-4-(8-amino-3-(1-but-2-ynoylpyrrolidin-2-yl)imidazo[1,5-a]pyrazin-1-yl)-N-(4-fluoropyridin-2-yl)benzamide]"
3,<100 nM,"CC#CC(=O)N(C)[C@@H](C)c1nc(-c2ccc(C(=O)Nc3cc(CCC)ccn3)cc2)c2c(N)nccn12 [Example 113, (S)-4-(8-amino-3-(1-(N-methylbut-2-ynamido)ethyl)imidazo[1,5-a]pyrazin-1-yl)-N-(4-propylpyridin-2-yl)benzamide]"
4,<100 nM,"CC#CC(=O)N1CCC[C@H]1c1nc(-c2ccc(C(=O)Nc3cc(N4CCCC4)ccn3)cc2)c2c(N)nccn12 [Example 96, (S)-4-(8-amino-3-(1-but-2-ynoylpyrrolidin-2-yl)imidazo[1,5-a]pyrazin-1-yl)-N-(4-(pyrrolidin-1-yl)pyridin-2-yl)benzamide]"
5,<100 nM,"CC#CC(=O)NCc1nc(-c2ccc(C(=O)Nc3ccccn3)cc2)c2c(N)nccn12 [Example 112, 4-(8-amino-3-(but-2-ynamidomethyl)imidazo[1,5-a]pyrazin-1-yl)-N-(pyridin-2-yl)benzamide]"
6,<100 nM,"COC/C=C/C(=O)N1CCC[C@H]1c1nc(-c2ccc(C(=O)Nc3cc(C#N)ccn3)cc2)c2c(N)nccn12 [Example 98, (S,E)-4-(8-amino-3-(1-(4-methoxybut-2-enoyl)pyrrolidin-2-yl)imidazo[1,5-a]pyrazin-1-yl)-N-(4-cyanopyridin-2-yl)benzamide]"

# Same assay, conditions: 60 min pre-incubation, 5 μM ATP, bin bound in μM
row,Compound,EC50 Btk activity values
1,"CCCc1ccnc(NC(=O)c2ccc(-c3nc([C@@H]4CCCN4C(=O)/C=C/COC)n4ccnc(N)c34)c(C)c2)c1 [Example 87, 4-(8-amino-3-((S)-1-((E)-4-methoxybut-2-enoyl)pyrrolidin-2-yl)imidazo[1,5-a]pyrazin-1-yl)-3-methyl-N-(4-propylpyridin-2-yl)benzamide]",<1000 nM
2,"Nc1nccn2c([C@@H]3CCCCN3C(=O)c3ccnc(Cl)n3)nc(-c3ccc(C(=O)Nc4cccnn4)cc3)c12 [Example 74, (S)-4-(8-amino-3-(1-(2-chloropyrimidine-4-carbonyl)piperidin-2-yl)imidazo[1,5-a]pyrazin-1-yl)-N-(pyridazin-3-yl)benzamide]",<1000 nM
3,"COC/C=C/C(=O)N1CCCC[C@H]1c1nc(-c2ccc(C(=O)Nc3nccc(C)n3)cc2)c2c(N)nccn12 [Example 88, (S,E)-4-(8-amino-3-(1-(4-methoxybut-2-enoyl)piperidin-2-yl)imidazo[1,5-a]pyrazin-1-yl)-N-(4-methylpyrimidin-2-yl)benzamide]",<1000 nM
4,"COC/C=C/C(=O)N1CCCC[C@H]1c1nc(-c2ccc(C(=O)Nc3cccnn3)cc2)c2c(N)nccn12 [Example 72, (S,E)-4-(8-amino-3-(1-(4-methoxybut-2-enoyl)piperidin-2-yl)imidazo[1,5-a]pyrazin-1-yl)-N-(pyridazin-3-yl)benzamide]",<1000 nM
5,"COC/C=C/C(=O)N1CCCC[C@H]1c1nc(-c2ccc(C(=O)Nc3ncccn3)cc2)c2c(N)nccn12 [Example 55, (S,E)-4-(8-amino-3-(1-(4-methoxybut-2-enoyl)piperidin-2-yl)imidazo[1,5-a]pyrazin-1-yl)-N-(pyrimidin-2-yl)benzamide]",<1000 nM
6,"C=CC(=O)N1CCCC[C@H]1c1nc(-c2ccc(C(=O)Nc3ccccn3)cc2C)c2c(N)nccn12 [Example 68, 4-(3-((S)-1-acryloylpiperidin-2-yl)-8-aminoimidazo[1,5-a]pyrazin-1-yl)-3-methyl-N-(pyridin-2-yl)benzamide]",<1000 nM

# The remaining lines, values ahead:
row,EC50 Btk activity values,Compound
1,<1000 nM,"C=C(C(=O)N1CCC[C@H]1c1nc(-c2ccc(C(=O)Nc3ccccn3)cc2)c2c(N)nccn12)C(F)(F)F [Example 92, (S)-4-(8-amino-3-(1-(2-(trifluoromethyl)acryloyl)pyrrolidin-2-yl)imidazo[1,5-a]pyrazin-1-yl)-N-(pyridin-2-yl)benzamide]"
2,<1000 nM,"N#CCN1CCC[C@H]1c1nc(-c2ccc(C(=O)Nc3ccccn3)cc2)c2c(N)nccn12 [Example 94, (S)-4-(8-amino-3-(1-(cyanomethyl)pyrrolidin-2-yl)imidazo[1,5-a]pyrazin-1-yl)-N-(pyridin-2-yl)benzamide]"
